Values quoted from earlier work in patent US7906649B2, “Aminocyclohexanes as dipeptidyl peptidase-IV inhibitors for the treatment of diabetes” (Merck Sharp & Dohme Corp., priority 2005, dated 2011).

Legend:
[1] = system: cardiac allograft survival; settings: rats; survival doubled from day 7
[2] = system: GRF degradation in plasma
hematopoiesis = settings: mouse, cyclophosphamide-induced neutropenia

Compound: CC(C)N1CCC(c2ccccc2)(c2ccccc2)CC1 [Prodipine, Pro-Pro-diphenyl-phosphonate]
- cardiac allograft survival [1]: 14 day

Compound: diprotin A
- degradation of GRF to GRF[3-44] in plasma [2]: prevented

Compound: CC(C)[C@H](N)C(=O)N1CCC[C@H]1B(O)O [Val-Boro-Pro]
- effect on hematopoiesis (hematopoiesis): stimulated hematopoiesis
